These results are taken from patent US12115167B2 (Woolsey Pharmaceuticals, Inc., priority 2022, dated 2024).

The nature of this data set: Stability of fasudil in 0.05M citrate buffer with and without EDTA, 60° C. for 36 days. The conditions noted are these: 60° C. 36 days, in words. It is filed as physicochemical. The protocol: Samples were stored at 60° C. for 36 days.

Counter-ions that a name gives are not always drawn.

As to `O=S(=O)(c1cccc2cnccc12)N1CCCNCC1` [fasudil, hexahydro-1-(5-isoquinolinesulfonyl)-1H-1,4-diazepine monohydrochloride hemihydrate], the “compatibility with EDTA” value is recorded as “compatible with EDTA in citrate buffer”.
